Test results from US20240246942A1, “KINASE INHIBITORS FOR THE TREATMENT OF NEURODEGENERATIVE DISEASES” (priority 2020, published 2024).

Key:
Test in all cases: biochemical
[1] = biological target: T1, panel of 374 wild-type kinases (Homo sapiens, UniProt O00506); conditions: read-out: % Enzyme Activity (relative to DMSO controls), kinase STK25/YSK1
T1 construct: purchased Reaction Biology Corporation

[2] = biological target: T2, panel of 374 wild-type kinases (Homo sapiens, UniProt O75116); conditions: read-out: % Enzyme Activity (relative to DMSO controls), kinase ROCK2
T2 construct: purchased Reaction Biology Corporation

[3] = biological target: T3, panel of 374 wild-type kinases (Homo sapiens, UniProt O75460); conditions: read-out: % Enzyme Activity (relative to DMSO controls), ERN1/IRE1
T3 construct: purchased Reaction Biology Corporation

[4] = biological target: T4, panel of 374 wild-type kinases (Homo sapiens, UniProt P08922); conditions: read-out: % Enzyme Activity (relative to DMSO controls), kinase ROS/ROS1
T4 construct: purchased Reaction Biology Corporation

[5] = biological target: T5, panel of 374 wild-type kinases (Homo sapiens, UniProt P20794); conditions: read-out: % Enzyme Activity (relative to DMSO controls), MAK
T5 construct: purchased Reaction Biology Corporation
T5 sequence (P20794 1-623): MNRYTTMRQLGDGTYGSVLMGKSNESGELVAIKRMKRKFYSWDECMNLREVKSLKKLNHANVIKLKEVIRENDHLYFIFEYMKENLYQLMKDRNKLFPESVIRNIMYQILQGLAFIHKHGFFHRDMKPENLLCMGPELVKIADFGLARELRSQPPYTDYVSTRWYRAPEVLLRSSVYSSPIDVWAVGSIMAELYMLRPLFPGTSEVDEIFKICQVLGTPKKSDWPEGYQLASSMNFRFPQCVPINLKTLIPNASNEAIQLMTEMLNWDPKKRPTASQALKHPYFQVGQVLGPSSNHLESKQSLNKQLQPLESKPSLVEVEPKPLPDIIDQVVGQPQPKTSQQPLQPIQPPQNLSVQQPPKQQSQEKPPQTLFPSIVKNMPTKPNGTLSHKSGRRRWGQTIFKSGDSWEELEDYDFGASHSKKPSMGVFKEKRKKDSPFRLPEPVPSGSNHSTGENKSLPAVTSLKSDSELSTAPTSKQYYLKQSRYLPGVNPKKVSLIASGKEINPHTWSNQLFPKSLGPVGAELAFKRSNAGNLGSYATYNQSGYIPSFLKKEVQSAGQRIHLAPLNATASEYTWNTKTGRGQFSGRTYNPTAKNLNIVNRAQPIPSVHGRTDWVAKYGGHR

[6] = biological target: T6, panel of 374 wild-type kinases (Homo sapiens, UniProt P53350); conditions: read-out: % Enzyme Activity (relative to DMSO controls), kinase PLK1
T6 construct: purchased Reaction Biology Corporation

[7] = biological target: T7, panel of 374 wild-type kinases (Homo sapiens, UniProt Q07912); conditions: read-out: % Enzyme Activity (relative to DMSO controls), ACK1
T7 construct: purchased Reaction Biology Corporation

[8] = biological target: T8, panel of 374 wild-type kinases (Homo sapiens, UniProt Q13233); conditions: read-out: % Enzyme Activity (relative to DMSO controls), MEKK1
T8 construct: purchased Reaction Biology Corporation

[9] = biological target: T9, panel of 374 wild-type kinases (Homo sapiens, UniProt Q6P2M8); conditions: read-out: % Enzyme Activity (relative to DMSO controls), CAMK1b
T9 construct: purchased Reaction Biology Corporation

[10] = biological target: T10, panel of 374 wild-type kinases (Homo sapiens, UniProt Q6P3R8); conditions: read-out: % Enzyme Activity (relative to DMSO controls), NEK5
T10 construct: purchased Reaction Biology Corporation
T10 sequence (Q6P3R8 1-708): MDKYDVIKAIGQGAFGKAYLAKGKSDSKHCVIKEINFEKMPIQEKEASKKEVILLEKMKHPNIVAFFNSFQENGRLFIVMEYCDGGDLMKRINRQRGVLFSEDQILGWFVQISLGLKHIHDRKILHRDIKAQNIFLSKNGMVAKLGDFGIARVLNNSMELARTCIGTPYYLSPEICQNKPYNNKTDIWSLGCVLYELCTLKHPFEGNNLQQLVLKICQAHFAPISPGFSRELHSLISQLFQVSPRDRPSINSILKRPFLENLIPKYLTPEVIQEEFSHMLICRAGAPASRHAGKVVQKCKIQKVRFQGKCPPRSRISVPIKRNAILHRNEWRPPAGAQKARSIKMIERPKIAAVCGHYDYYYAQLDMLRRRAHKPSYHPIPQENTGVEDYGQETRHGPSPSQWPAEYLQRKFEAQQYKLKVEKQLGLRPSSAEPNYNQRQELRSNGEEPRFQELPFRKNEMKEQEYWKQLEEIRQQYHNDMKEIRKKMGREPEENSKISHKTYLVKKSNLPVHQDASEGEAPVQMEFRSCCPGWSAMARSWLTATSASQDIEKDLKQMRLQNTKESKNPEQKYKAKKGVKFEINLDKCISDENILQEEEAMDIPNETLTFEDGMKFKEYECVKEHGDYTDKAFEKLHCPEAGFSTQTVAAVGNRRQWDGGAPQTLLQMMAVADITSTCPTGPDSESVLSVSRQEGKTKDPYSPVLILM

[11] = biological target: T11, panel of 374 wild-type kinases (Homo sapiens, UniProt Q9BYT3); conditions: kinase STK33, read-out: % Enzyme Activity (relative to DMSO controls)
T11 construct: purchased Reaction Biology Corporation

[12] = biological target: T12, panel of 374 wild-type kinases (Homo sapiens, UniProt Q9H2X6); conditions: read-out: % Enzyme Activity (relative to DMSO controls), HIPK2
T12 construct: purchased Reaction Biology Corporation

[13] = biological target: T13, panel of 374 wild-type kinases (Homo sapiens, UniProt Q9UQM7); conditions: read-out: % Enzyme Activity (relative to DMSO controls), CAMK2a
T13 construct: purchased Reaction Biology Corporation

[14] = biological target: T14, panel of 374 wild-type kinases (Homo sapiens, UniProt Q9Y2K2); conditions: read-out: % Enzyme Activity (relative to DMSO controls), kinase SIK3
T14 construct: purchased Reaction Biology Corporation
T14 sequence (Q9Y2K2 whole entry): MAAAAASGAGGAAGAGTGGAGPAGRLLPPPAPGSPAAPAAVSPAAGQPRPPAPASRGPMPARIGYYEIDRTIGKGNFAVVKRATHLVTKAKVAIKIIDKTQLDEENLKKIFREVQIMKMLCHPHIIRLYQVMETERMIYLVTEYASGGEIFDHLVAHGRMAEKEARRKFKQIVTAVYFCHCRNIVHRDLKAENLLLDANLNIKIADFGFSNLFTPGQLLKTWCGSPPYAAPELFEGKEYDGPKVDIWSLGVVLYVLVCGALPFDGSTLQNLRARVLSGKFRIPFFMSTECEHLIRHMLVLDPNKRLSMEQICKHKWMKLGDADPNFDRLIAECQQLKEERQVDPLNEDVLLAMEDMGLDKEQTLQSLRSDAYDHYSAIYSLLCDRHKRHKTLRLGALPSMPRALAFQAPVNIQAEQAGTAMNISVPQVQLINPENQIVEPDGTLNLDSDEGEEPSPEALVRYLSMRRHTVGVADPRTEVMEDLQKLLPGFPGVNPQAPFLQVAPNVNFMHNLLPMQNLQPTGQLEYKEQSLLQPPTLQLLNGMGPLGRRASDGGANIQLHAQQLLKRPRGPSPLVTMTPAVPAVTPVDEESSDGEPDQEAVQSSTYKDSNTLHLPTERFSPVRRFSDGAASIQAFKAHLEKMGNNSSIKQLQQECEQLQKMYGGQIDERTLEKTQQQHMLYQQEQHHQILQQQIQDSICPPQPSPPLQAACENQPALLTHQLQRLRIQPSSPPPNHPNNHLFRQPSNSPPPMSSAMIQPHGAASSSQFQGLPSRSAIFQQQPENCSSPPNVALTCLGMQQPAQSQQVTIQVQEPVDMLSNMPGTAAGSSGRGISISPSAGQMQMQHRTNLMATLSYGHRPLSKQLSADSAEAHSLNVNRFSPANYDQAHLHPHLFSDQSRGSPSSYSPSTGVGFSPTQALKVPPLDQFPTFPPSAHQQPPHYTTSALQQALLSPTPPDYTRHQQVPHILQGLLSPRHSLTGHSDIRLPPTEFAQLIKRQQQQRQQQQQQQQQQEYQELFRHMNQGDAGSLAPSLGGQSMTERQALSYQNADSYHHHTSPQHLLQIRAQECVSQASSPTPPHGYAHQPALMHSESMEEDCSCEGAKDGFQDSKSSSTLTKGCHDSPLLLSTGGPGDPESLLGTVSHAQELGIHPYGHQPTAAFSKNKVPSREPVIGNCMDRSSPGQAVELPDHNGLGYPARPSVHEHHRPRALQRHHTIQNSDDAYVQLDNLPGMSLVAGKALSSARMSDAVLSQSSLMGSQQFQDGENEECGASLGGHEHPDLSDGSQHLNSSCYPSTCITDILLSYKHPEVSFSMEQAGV

T1 sequence (O00506 whole entry): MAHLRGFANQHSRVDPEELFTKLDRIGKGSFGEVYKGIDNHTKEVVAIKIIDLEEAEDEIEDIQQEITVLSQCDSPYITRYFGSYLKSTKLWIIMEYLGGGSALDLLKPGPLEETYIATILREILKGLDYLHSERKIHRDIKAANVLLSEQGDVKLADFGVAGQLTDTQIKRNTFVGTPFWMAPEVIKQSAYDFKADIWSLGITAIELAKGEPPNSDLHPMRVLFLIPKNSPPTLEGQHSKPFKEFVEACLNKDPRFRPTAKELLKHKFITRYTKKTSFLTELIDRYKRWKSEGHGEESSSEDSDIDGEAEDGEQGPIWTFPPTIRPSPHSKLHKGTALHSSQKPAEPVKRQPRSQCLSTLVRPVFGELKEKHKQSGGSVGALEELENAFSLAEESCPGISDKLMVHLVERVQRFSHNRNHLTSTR
T3 sequence (O75460 19-977): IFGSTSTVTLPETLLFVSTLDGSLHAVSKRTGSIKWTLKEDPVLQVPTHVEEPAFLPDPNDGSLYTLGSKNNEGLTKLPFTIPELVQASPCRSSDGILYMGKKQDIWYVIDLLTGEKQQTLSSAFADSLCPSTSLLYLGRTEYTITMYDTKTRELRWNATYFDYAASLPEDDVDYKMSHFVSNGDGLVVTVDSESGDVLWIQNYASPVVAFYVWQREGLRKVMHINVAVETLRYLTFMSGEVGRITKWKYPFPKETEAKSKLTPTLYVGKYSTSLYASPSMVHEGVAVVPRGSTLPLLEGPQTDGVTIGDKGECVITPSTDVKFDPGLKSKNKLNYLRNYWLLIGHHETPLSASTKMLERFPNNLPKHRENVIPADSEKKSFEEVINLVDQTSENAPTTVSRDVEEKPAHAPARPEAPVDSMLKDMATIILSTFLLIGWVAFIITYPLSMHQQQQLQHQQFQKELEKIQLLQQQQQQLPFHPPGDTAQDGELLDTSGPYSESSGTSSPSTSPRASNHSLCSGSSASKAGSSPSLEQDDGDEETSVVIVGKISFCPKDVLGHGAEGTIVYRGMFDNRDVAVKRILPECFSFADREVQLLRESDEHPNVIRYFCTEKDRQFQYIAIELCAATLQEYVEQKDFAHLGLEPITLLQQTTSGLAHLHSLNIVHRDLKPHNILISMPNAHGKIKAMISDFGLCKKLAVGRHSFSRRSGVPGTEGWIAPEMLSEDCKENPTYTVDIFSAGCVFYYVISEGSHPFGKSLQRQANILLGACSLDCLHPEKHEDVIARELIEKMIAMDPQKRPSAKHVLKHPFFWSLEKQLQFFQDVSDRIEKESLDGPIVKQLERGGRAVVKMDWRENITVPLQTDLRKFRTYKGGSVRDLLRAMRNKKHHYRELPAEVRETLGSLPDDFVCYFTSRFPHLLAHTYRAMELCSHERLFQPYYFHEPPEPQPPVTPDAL
T7 sequence (Q07912 whole entry): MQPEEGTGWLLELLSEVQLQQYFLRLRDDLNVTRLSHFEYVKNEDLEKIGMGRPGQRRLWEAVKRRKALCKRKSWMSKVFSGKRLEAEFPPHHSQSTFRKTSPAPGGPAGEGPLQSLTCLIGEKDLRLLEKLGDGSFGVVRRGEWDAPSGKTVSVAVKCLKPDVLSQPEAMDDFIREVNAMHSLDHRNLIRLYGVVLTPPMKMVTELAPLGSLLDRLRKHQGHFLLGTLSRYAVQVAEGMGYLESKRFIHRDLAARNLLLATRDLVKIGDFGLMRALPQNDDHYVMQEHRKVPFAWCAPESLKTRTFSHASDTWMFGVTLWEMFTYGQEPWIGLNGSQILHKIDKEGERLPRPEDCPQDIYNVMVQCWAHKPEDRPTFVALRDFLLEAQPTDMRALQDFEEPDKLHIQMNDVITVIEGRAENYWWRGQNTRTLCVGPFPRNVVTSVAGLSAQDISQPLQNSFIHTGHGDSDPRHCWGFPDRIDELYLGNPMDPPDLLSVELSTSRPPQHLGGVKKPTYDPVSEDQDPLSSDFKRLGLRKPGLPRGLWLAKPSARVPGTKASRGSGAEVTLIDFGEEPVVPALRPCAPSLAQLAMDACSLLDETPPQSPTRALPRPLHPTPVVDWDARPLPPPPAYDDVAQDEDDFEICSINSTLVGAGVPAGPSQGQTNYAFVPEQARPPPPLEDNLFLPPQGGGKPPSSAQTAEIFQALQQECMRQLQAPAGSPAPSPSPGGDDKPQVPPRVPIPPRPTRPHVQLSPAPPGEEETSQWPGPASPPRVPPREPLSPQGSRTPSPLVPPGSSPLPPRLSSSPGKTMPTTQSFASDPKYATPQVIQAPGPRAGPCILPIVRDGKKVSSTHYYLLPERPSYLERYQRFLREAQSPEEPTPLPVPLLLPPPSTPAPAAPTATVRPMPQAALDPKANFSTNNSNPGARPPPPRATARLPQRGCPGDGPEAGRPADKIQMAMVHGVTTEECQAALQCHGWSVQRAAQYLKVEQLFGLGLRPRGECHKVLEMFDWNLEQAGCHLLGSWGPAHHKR
T6 sequence (P53350 whole entry): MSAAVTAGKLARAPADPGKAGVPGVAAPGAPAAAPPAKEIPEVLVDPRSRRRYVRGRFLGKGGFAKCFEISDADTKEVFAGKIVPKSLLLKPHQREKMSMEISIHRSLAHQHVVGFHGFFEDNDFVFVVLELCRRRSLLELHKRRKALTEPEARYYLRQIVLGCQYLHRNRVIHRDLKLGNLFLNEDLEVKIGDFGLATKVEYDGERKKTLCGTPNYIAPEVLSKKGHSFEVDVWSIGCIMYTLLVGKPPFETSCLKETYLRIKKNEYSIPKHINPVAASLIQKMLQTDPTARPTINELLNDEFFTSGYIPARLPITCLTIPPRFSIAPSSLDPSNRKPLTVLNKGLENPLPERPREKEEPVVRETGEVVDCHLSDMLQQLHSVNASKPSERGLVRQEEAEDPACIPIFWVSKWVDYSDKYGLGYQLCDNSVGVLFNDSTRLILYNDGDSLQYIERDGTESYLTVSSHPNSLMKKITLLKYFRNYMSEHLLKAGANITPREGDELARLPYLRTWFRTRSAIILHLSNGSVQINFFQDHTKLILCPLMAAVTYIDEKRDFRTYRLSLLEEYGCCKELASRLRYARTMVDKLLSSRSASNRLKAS
T11 sequence (Q9BYT3 whole entry): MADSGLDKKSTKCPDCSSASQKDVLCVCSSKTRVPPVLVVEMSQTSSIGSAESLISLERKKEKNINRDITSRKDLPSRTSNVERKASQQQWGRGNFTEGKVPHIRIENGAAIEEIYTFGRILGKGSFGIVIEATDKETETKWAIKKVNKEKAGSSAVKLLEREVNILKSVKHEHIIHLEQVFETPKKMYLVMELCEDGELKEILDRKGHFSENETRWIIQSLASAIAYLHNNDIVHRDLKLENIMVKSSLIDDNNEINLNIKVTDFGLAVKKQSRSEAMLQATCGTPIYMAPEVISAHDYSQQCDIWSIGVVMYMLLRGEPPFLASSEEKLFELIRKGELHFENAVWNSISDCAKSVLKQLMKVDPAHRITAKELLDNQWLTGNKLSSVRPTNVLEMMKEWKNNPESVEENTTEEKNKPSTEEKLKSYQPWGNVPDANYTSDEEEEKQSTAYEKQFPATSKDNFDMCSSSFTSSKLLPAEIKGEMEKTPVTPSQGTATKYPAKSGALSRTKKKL

| SMILES | remaining activity at 5 µM [1] [%] | remaining activity at 5 µM [2] [%] | remaining activity at 5 µM [3] [%] | remaining activity at 5 µM [4] [%] | remaining activity at 5 µM [5] [%] | remaining activity at 5 µM [6] [%] | remaining activity at 5 µM [7] [%] | remaining activity at 5 µM [8] [%] | remaining activity at 5 µM [9] [%] | remaining activity at 5 µM [10] [%] | remaining activity at 5 µM [11] [%] | remaining activity at 5 µM [12] [%] | remaining activity at 5 µM [13] [%] | remaining activity at 5 µM [14] [%] | also measured |
| --- | --- | --- | --- | --- | --- | --- | --- | --- | --- | --- | --- | --- | --- | --- | --- |
| O=C(Nc1cnn(-c2csc(C(=O)NC3COC3)c2)c1)Nc1ccccc1Cl [Compound 17, 4-(4-(3-(2-chlorophenyl)ureido)-1H-pyrazol-1-yl)-N-(oxetan-3-yl)thiophene-2-carboxamide] | 106 | 100 | 94.3 | 103 | 98.8 | 97 | 85.6 | 103 | 96.3 | 110 | 99.3 | 102 | 100 | 92.4 | – |
| Cc1sc(C(=O)NC2COC2)cc1-n1cc(NC(=O)Nc2c(F)cccc2Cl)cn1 [Compound 27, 4-(4-(3-(2-chloro-6-fluorophenyl)ureido)-1H-pyrazol-1-yl)-5-methyl-N-(oxetan-3-yl)thiophene-2-carboxamide] | – | – | – | – | – | – | – | – | – | – | – | – | – | – | remaining activity at 10 µM ([1]; 10 uM): 70.5%; remaining activity at 10 µM ([2]; 10 uM): 93.6%; remaining activity at 10 µM ([3]; 10 uM): 94.1%; remaining activity at 10 µM ([4]; 10 uM): 102%; remaining activity at 10 µM ([5]; 10 uM): 120%; remaining activity at 10 µM ([6]; 10 uM): 104%; remaining activity at 10 µM ([7]; 10 uM): 106%; remaining activity at 10 µM ([8]; 10 uM): 94.5%; remaining activity at 10 µM ([9]; 10 uM): 80.1%; remaining activity at 10 µM ([10]; 10 uM): 105%; remaining activity at 10 µM ([11]; 10 uM): 87.6%; remaining activity at 10 µM ([12]; 10 uM): 103%; remaining activity at 10 µM ([13]; 10 uM): 99.7%; remaining activity at 10 µM ([14]; 10 uM): 86.9% |
| O=C(Nc1cnn(-c2csc(C(=O)NC3COC3)c2)c1)Nc1c(F)cccc1Cl [Compound 25, 4-(4-(3-(2-chloro-6-fluorophenyl)ureido)-1H-pyrazol-1-yl)-N-(oxetan-3-yl)thiophene-2-carboxamide] | 96.1 | 107 | 95.8 | 85.5 | 97.6 | 95.5 | 94.6 | 98.7 | 102 | 88.1 | 81.8 | 92.6 | 99.4 | 94.5 | – |
